A short description of one data set: clinical. To be noted: both, human, in vivo, po, 400 mg.
For another data set, the system named is Vaccinia virus (NYCBH). The data set can be described thus: microbe, parasite or virus in culture. It is filed as cell-based. The settings on record: Orthopoxvirus vaccinia, Vero.
Data set [1] relates to respiratory syncytial virus. It is filed as cell-based.
In the next data set the test system is Pichinde virus. The class given is cell-based.
The conditions of data set [2]: both, human, in vivo, po, 400 mg.
For another data set, the system named is cytomegalovirus. The class given is cell-based.
The subject of data set [3] is Rift Valley fever virus (strain MP12). The class given is cell-based.
A further data set concerns Zaire 79 strain of MPX. The arrangement: species or system cynomolgus monkeys (Macaca fascicularis). To be noted: cynomolgus monkey, in vivo.
A further data set has as its system VV. The settings on record: orally twice a day at 15 or 50 mg/kg of body weight for 5 days; intravenous VV; cited from earlier work.
The subject of the next data set is ectromelia virus (ECTV). To be noted: read-out: 50% effective concentration [EC50], inhibition of virus replication; cited from earlier work.
The test system of the next data set is monkeypox. The settings on record: read-out: 50% effective concentration [EC50], inhibition of virus replication, in vitro; cited from earlier work.
In a further data set the test system is cowpox virus (CV). The settings on record: read-out: 50% effective concentration [EC50], inhibition of virus replication, in vitro; cited from earlier work.
Another data set concerns ECTV, VV, or CV. To be noted: mouse, in vivo; cited from earlier work.
In a further data set the test system is vaccinia virus (VV). The settings on record: read-out: 50% effective concentration [EC50], inhibition of virus replication, in vitro; cited from earlier work.
The subject of another data set is variola viruses. The settings on record: read-out: 50% effective concentration [EC50], inhibition of virus replication, in vitro; cited from earlier work.
Another data set relates to camelpox. To be noted: read-out: 50% effective concentration [EC50], inhibition of virus replication; cited from earlier work.

For the compound `O=C(NN1C(=O)C2C3C=CC(C4CC34)C2C1=O)c1ccc(C(F)(F)F)cc1` (single isomer, unassigned) [Form I, 4-trifluoromethyl-N-(3,3a,4,4a,5,5a,6,6a-octahydro-1,3-dioxo-4,6-ethenocycloprop[f]isoindol-2(1H)-yl)-benzamide], in the data set “clinical” (Median), the Cmax (commonly the highest concentration seen after dosing) was determined as 1170 ng/mL and the Tmax – broadly, the time from dosing to the highest level – came out at 3.5 h. Moreover, the half-life – broadly, the time in which the quantity being followed falls by half – in the data set “clinical” (t1/2, Median) was 25.1 h. For the same compound, in the data set with Vaccinia virus (NYCBH) (72 h, read-out: inhibition of vaccinia virus-induced CPE), the inhibition (as a rule, the share of the control response that was lost under treatment) at 5 µM was greater than 50%. Also, the EC50 in the data set on Vaccinia virus (NYCBH) (read-out: EC50 in the CPE assay) came out at 0.05 µM. Further, in data set [1], the “inhibition of replication of unrelated virus” value was “do not inhibit”. For the same compound, the “inhibition of replication of unrelated virus” value in the data set on Pichinde virus is listed as “do not inhibit”. Further, in data set [2], the “AUC0-τ, Mean” value was 15624.5 ng·h/mL; the “AUC0-∞, Mean” value worked out at 19922.02 ng·h/mL; the “Cmax, Mean” value amounted to 1068.9 ng/mL; the “Tmax, Mean” value worked out at 3.8 h. In addition, the “t1/2, Mean” value in data set [2] came out at 27.446 h. Also, the “inhibition of replication of unrelated virus” value with cytomegalovirus is given as “do not inhibit”. For the same compound, in data set [3], the “inhibition of replication of unrelated virus” value was “do not inhibit”. In the data set on Zaire 79 strain of MPX, the “amount of viral DNA compared to vehicle-treated animals” value is given as “significantly decrease”, the “reduction in the level of virus replication compared to vehicle-treated group” value is reported as “more than 1,000 fold” and the survival entry is “survive”.
On to `O=C(NN1C(=O)C2C3C=CC(C4CC34)C2C1=O)c1ccc(C(F)(F)F)cc1` (single isomer, unassigned) [Form V, 4-trifluoromethyl-N-(3,3a,4,4a,5,5a,6,6a-octahydro-1,3-dioxo-4,6-ethenocycloprop[f]isoindol-2(1H)-yl)-benzamide], for which the AUC – broadly, the area under the concentration-time curve, a measure of exposure – in “clinical” (AUC0-τ, Mean) is 20100 ng·h/mL. In the data set “clinical” (AUC0-∞, Mean), the AUC(0-inf) (usually the area under the concentration-time curve extrapolated to infinity) was determined as 22000 ng·h/mL. In the data set “clinical” (Mean), the maximum concentration (Cmax) turned out to be 1230 ng/mL and the time of peak concentration (Tmax) came out at 3.8 h. Further, in “clinical” (t1/2, Mean), the half-life is 29.2 h. Moreover, in data set [2], the “Cmax, Median” value is given as 1180 ng/mL; the “Tmax, Median” value worked out at 4 h; the “t1/2, Median” value was 16.647 h.
As to `O=C(NN1C(=O)C2C3C=CC(C4CC34)C2C1=O)c1ccc(C(F)(F)F)cc1` (stereo not shown) [ST-246, 4-trifluoromethyl-N-(3,3a,4,4a,5,5a,6,6a-octahydro-1,3-dioxo-4,6-ethenocycloprop[f]isoindol-2(1H)-yl)-benzamide], the tail lesions entry in the data set with VV is recorded as “significantly reduced”. The EC50 with ectromelia virus (ECTV), with monkeypox, with cowpox virus (CV), with vaccinia virus (VV), in the data set with variola viruses and with camelpox was no more than 0.07 µM in each case. For the same compound, the “preventing or reducing mortality” value in the data set with ECTV, VV, or CV is reported as “highly effective in preventing or reducing mortality”. Moreover, in the data set with ECTV, VV, or CV, the “toxicity in animal models” value is given as “nontoxic”.

The values above are taken from patent publication US12433868B2 (priority 2010, dated 2025).
